Test results as given in patent US6696457B1, “Morphinoid compounds” (SmithKline Beecham p.l.c., priority 1999, dated 2004).
pIC50: −log10 of the molar value. Where a name gives a salt, the structure may show the parent alone.

Assays:
[1] = metabolic stability: intrinsic clearance in liver microsomes; type: in vitro ADME, human; conditions: 0.5 uM compound, 0.5 mg/ml microsomal protein, 37° C., 30 minutes, NADPH regenerating system
Description: The metabolic stability of the compounds of the invention was determined in the following manner: the compounds were incubated (37° C.) at 0.5 uM over 30 minutes with microsomal protein (at a concentration of 0.5 mg/ml) and an NADPH regenerating system (cofactor); the incubation volume was made up to a total of 1 mL with 50 mM potassium phosphate buffer (pH 7.4).
All of the incubation components, apart from cofactor, were pre-incubated for approximately 5 minutes then the reaction was started by the addition of cofactor solution. 50 uL samples were removed from the incubation at 3 minute intervals and placed into 200 uL of acetonitrile (containing an Internal Standard) to precipitate the microsomal protein and terminate the reaction.
All samples were analysed by LC/MS for parent compound and Internal Standard (I.S) and the results calculated as peak area ratios: compound/I.S.
The peak area ratios were plotted against time and intrinsic clearance values were calculated from the fitted exponential decay curve:
CLint (mL/min/g liver)=(k·V·microsomal yield)/[protein] […]
k=rate constant from the exponential decay curve
V=incubation volume (1 mL) microsomal yield=standard microsomal protein yield from 1 g liver (52.5 mg) [protein]=protein concentration in each incubation (0.5 mg/mL); a solution containing 0.5 uM of the compound under study was incubated with 0.5 mg of liver microsomal protein over 30 min at 37° C. Samples were taken, protein precipitated with acetonitrile and centrifuged prior HPLC-MS analysis.

[2] = biological target: T1, human delta opioid receptor (h-DOR/CHO) (Homo sapiens, UniProt P41143); test: cAMP bioassay: inhibition of forskolin-stimulated cAMP in h-DOR/CHO cells; type: cell-based
T1 construct: expressed in transfected cells
Description: The delta agonistlantagonist activity of the compounds of the present invention is determined in the cAMP bioassay in CHO cell lines stably expressing the human delta opioid receptor (h-DOR/CHO).
For the cAMP assay whole h-DOR/CHO cells were incubated with test compounds in Krebs-Ringer 200 mM, buffered with HEPES, containing (mM): NaCl (125), KCl (5), KH2PO4 (0.4), MgSO4 (1.2), CaCl2 (1.2), NaHCO3(25), glucos (12) and IBMX (1). Cells were treated with forskolin […] to stimulate cAMP synthesis.
The cAMP content was determined using a double antibody [^125I]-cAMp radioimmunoassay (Amersham RPA 509). The data were normalised to protein content.

[3] = in vivo clearance and absolute bioavailability

T1 sequence (P41143 whole entry): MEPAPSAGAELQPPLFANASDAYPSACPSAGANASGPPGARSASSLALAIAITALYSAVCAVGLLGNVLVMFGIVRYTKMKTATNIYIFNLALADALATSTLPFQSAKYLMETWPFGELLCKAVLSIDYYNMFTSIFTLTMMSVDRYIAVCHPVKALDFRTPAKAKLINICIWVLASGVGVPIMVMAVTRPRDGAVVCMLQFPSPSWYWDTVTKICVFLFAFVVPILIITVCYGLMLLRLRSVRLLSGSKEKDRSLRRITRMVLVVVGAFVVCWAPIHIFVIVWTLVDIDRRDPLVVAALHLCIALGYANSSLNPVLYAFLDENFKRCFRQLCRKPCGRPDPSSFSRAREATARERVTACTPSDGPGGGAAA

| Compound | in vitro Clearance (human microsomes) CL [1] | other results |
| --- | --- | --- |
| Cc1c(C(=O)N2CCc3ccccc3C2)[nH]c2c1CC1(O)C3Cc4ccccc4C1(CCN3)C2 (stereo not drawn) [Example 6, [10R,4bR-(4b beta,9a beta)]-7-(1,2,3,4-tetrahydroisoquinolin-2-yl)carbonyl-8-methyl-4b,5,9,9a, 10,11-hexahydro-9a-hydroxy-(6H)-1 0,4b-(iminoethano)phenanthro[3,2-b]pyrrole] | <0.6 ml/min/g liver |  |
| Cc1c2c(n(C)c1C(=O)N(Cc1ccccc1)C(C)C)CC13CCNC(Cc4ccccc41)C3(O)C2 (stereo not drawn) [Example 10, [10R,4bS-(4b beta,9a beta)]-7-(N-benzyl-N-isopropyl)aminocarbonyl-6,8-dimethyl-4b,5,9,9a, 10,11-hexahydro-9a-hydroxy-(6H)-10,4b-(iminoethano)-phenanthro[3,2-b]pyrrole] | 5.2 ml/min/g liver |  |
| CCN(Cc1ccccc1)C(=O)c1[nH]c2c(c1C)CC1(O)C3Cc4ccccc4C1(CCN3)C2 (stereo not drawn) [Example 5, [10R,4bR-(4b beta,9a beta)]-7-(N-benzyl-N-ethyl)aminocarbonyl-8-methyl-4b,5,9,9a, 10,11-hexahydro-9a-hydroxy-(6H)-10,4b-(iminoethano)phenanthro[3,2-b]pyrrole] | 2.0 ml/min/g liver |  |
| [10R,4bR-(4bb,9ab)]-7-(N,N-diisopropyl)aminocarbonyl-8,14-dimethyl4b,5,9,9a,10,11-hexahydro9a-hydroxy-(6H)-10,4b-(iminoethano)phenanthro[3,2-b]pyrrole. [Example 19] | 5.7 ml/min/g liver |  |
| CCN(Cc1ccccc1)C(=O)c1c(C)c2c(n1C)CC13CCNC(Cc4ccccc41)C3C2 (stereo not drawn) [Example 11, [10R,4bS-(4b beta,9a beta)]-7-(N-ethyl-N-benzyl)aminocarbonyl-6,8-dimethyl-4b,5,9,9a,10,11-hexahydro-(6H)-10-,4b-(iminoethano)phenanthro[3,2-b]pyrrole] | 13.0 ml/min/g liver |  |
| Cc1c(C(=O)N(Cc2ccccc2)C(C)C)[nH]c2c1C[C@@]1(O)[C@H]3Cc4ccccc4[C@@]1(CCN3)C2 (as salt: hydrochloride) [Example 2, [10R,4bR-(4b beta,9a beta)]-7-[(N-benzyl-N-isopropyl)aminocarbonyl]-8-methyl-4b,5,9,9a, 10,11-hexahydro-9a-hydroxy-(6H)-10,4b-(iminoethano)phenanthro-[3,2-b]pyrrole] |  | melting point: > 250 °C |
| Cc1c(C(=O)CC(C)C)[nH]c2c1C[C@@]1(O)[C@H]3Cc4ccccc4[C@@]1(CCN3)C2 [Example 7, [10R,4bR-(4b beta,9a beta)]-7-isobutylcarbonyl-8-methyl4b,5,9,9a,10,11-hexahydro-9a-hydroxy-(6H)-10,4b-(iminoethano)phenanthro[3,2-b]pyrrole] | <0.6 ml/min/g liver | melting point: 170 to 175 °C |
| Cc1c(C(=O)N(Cc2ccccc2)C(C)C)[nH]c2c1C[C@@]1(O)[C@H]3Cc4ccccc4[C@@]1(CCN3)C2 [Example 2, [10R,4bR-(4b beta,9a beta)]-7-[(N-benzyl-N-isopropyl)aminocarbonyl]-8-methyl-4b,5,9,9a, 10,11-hexahydro-9a-hydroxy-(6H)-10,4b-(iminoethano)phenanthro-[3,2-b]pyrrole] |  | pIC50 [2]: 8.94; antagonism of the agonist activity by the selective delta antagonist naltrindole ([2]; naltrindole 100 nM, h-DOR/CHO cells): completely antagonised |
| [10R,4bS-(4b beta,9a beta)]-7-(N-ethyl-N-phenyl)aminocarbonyl-8-methyl-4b,5,9,9a, 10,11-hexahydro-(6H)-10,4b-(iminoethano)phenanthro[3,2-b]pyrrole [Example 9] | 4.5 ml/min/g liver |  |
| Cc1c(C(=O)N(Cc2ccccc2)C(C)C)[nH]c2c1CC1C3Cc4ccccc4C1(CCN3)C2 (stereo not drawn) [Example 4, [10R,4bS-(4b beta,9a beta)]-7-(N-isopropyl-N-benzyl)aminocarbonyl-8-methyl-4b,5,9,9a, 10,11-hexahydro-(6H)-10-,4b-(iminoethano)phenanthro[3,2-b]pyrrole] | 3.3 ml/min/g liver |  |
| CCN(CC)C(=O)c1[nH]c2c(c1C)C[C@@]1(O)[C@H]3Cc4ccccc4[C@@]1(CCN3)C2 [Example 3, [10R,4bR-(4b beta,9a beta)]-7-(N,N-diethyl)aminocarbonyl-8-methyl-4b,5,9,9a, 10,11-hexahydro-9a-hydroxy-(6H)-10,4b-(iminoethano)phenanthro[3,2-b]pyrrole] | 0.8 ml/min/g liver | in vivo Clearance CL [3]: 27 ± 2 mL/min/kg; in vivo Absolute bioavailability F ipv ([3]; ipv): 60 ± 7% |
| Cc1c(C(=O)N(C(C)C)C(C)C)[nH]c2c1CC1(O)C3Cc4ccccc4C1(CCN3)C2 (stereo not drawn) [Example 1, [10R,4bR-(4b beta,9a beta)]-7-(N,N-diisopropyl)aminocarbonyl-8-methyl-4b,5,9,9a, 10,11-hexahydro-9a-hydroxy-(6H)-10,4b-(iminoethano)phenanthro[3,2-b]pyrrole] | 1.3 ml/min/g liver |  |
| CCN(C(=O)c1[nH]c2c(c1C)C[C@@]1(O)[C@H]3Cc4ccccc4[C@@]1(CCN3)C2)c1ccccc1 [Example 8, [10R,4bR-(4b beta,9a beta)]-7-[(N-phenyl-N-ethyl)aminocarbonyl]-4b,5,9,9a, 10,11-hexahydro-9a-hydroxy-(6H)-8-methyl-10,4(iminoethano)-phenanthro[3,2-b]pyrrole] | 5.9 ml/min/g liver |  |
| Cc1c(C(=O)N2CCc3ccccc3C2)[nH]c2c1CC1(O)C3Cc4ccccc4C1(CCN3C)C2 (stereo not drawn) [Example 21, [10R,4bR-(4b beta,9a beta)]-7-(1,2,3,4-tetrahydroisoquinolin-2-yl)carbonyl-8,14-dimethyl-4b,5,9,9a,10,11-hexahydro-9a-hydroxy-(6H)-10,4b-(iminoethano)phenanthro-[3,2-b]pyrrole] | 6.0 ml/min/g liver |  |
